These results are taken from patent US11058678B2 (Enanta Pharmaceuticals, Inc., priority 2018, dated 2021).

Molecules are shown by their SMILES.

This experiment deals with HBV (2.2.15 cells). Briefly: Antiviral activity in 2.2.15 cells: reduction of viral product accumulation (qPCR of lysates, HBsAg or HBeAg ELISA). Particulars: Hepatitis B virus, 120 h, day 5 post treatment, 50% reduction of viral product accumulation in lysates or supernatants vs no drug controls, readout (qPCR, HBsAg, HBeAg) not specified. The experiment is classed as cell-based, hepatitis B virus (HBV). The protocol: 2.2.15 cells are passaged upon attaining confluency in DMEM/F12 media in the presence of 10% FBS, Penn/Strep, and 250 ug/mL G418. Novel compounds are 5 fold serially diluted in DMSO and added to 96 well plates containing 35,000 cells/well at a 1:200 dilution so that the final concentration of DMSO is 0.5%. On day 5, post treatment cell lysates and supernatants are harvested for analysis.
Cells are lysed using Agilent Sidestep Lysis buffer, diluted 1:100 and quantified via quantitative real time PCR. Commercially available ELISA kits are used to quantitate the viral proteins HBsAg (Alpco) or HBeAg (US Biological) by following the manufacturer's recommended protocol after diluting samples to match the linear range of their respective assays. Irrespective of readout, compound concentrations that reduce viral product accumulation in the cell lysates or supernatants by 50% relative to no drug controls (EC50) are reported; EC50 ranges are as follows: A<0.1 μM; B 0.1-1 μM; C>1 μM.
Regarding `CC(C)(C)[C@@H]1Cc2c(cc(-c3cnco3)c3c2CCO3)-c2cc(=O)c(C(=O)O)cn21` [Example 83, (S)-5-(tert-butyl)-12-(oxazol-5-yl)-9-oxo-2,3,4,9-tetrahydro-5H-furo[3,2-f]pyrido[2,1-a]isoquinoline-8-carboxylic Acid], the half-maximal effective concentration (EC50) is below 100 nM. As for `CC(C)[C@@H]1Cc2c(cc(-c3ccccc3Cl)c3c2CCO3)-c2cc(=O)c(C(=O)O)cn21` [Example 113], the EC50 is above 1000 nM. The same measure for `CC(C)[C@@H]1Cc2c(cc(-c3cn[nH]c3)c3c2CCO3)-c2cc(=O)c(C(=O)O)cn21` [Example 102, (S)-5-isopropyl-9-oxo-12-(1H-pyrazol-4-yl)-2,3,4,9-tetrahydro-5H-furo[3,2-f]pyrido[2,1-a]isoquinoline-8-carboxylic Acid]: below 100 nM; for `COCCCOc1cc2c(cc1-c1cn[nH]c1)-c1cc(=O)c(C(=O)O)cn1[C@H]1[C@@H]2COC1(C)C` [Example 135, (3aS,12bR)-11-(3-methoxypropoxy)-3,3-dimethyl-7-oxo-10-(1H-pyrazol-4-yl)-3,3a,7,12b-tetrahydro-1H-furo[3,4-c]pyrido[2,1-a]isoquinoline-6-carboxylic Acid]: below 100 nM; for `CC(C)[C@@H]1Cc2c(cc(-n3cccn3)c3c2CCO3)-c2cc(=O)c(C(=O)O)cn21` [Example 116]: below 100 nM. In turn, `COCCCOc1cc2c(cc1-c1cnc(OC)nc1)-c1cc(=O)c(C(=O)O)cn1[C@H](C(C)(C)C)C2` [Example 44, (S)-6-(tert-butyl)-9-(3-methoxypropoxy)-10-(2-methoxypyrimidin-5-yl)-2-oxo-6,7-dihydro-2H-pyrido[2,1-a]isoquinoline-3-carboxylic Acid] displayed an EC50 below 100 nM.

The compound `COCCCOc1cc2c(cc1-c1nnc(C)o1)-c1cc(=O)c(C(=O)O)cn1[C@H](C(C)(C)C)C2` [Example 49, (S)-6-(tert-butyl)-9-(3-methoxypropoxy)-10-(5-methyl-1,3,4-oxadiazol-2-yl)-2-oxo-6,7-dihydro-2H-pyrido[2,1-a]isoquinoline-3-carboxylic Acid] showed an EC50 below 100 nM. The same measure for `COCCCOc1cc2c(cc1N1CCC1)-c1cc(=O)c(C(=O)O)cn1[C@H](C(C)(C)C)C2` [Example 55, (S)-10-(azetidin-1-yl)-6-(tert-butyl)-9-(3-methoxypropoxy)-2-oxo-6,7-dihydro-2H-pyrido[2,1-a]isoquinoline-3-carboxylic Acid]: below 100 nM; for `CC1(C)Cc2c3c(cc(-c4cn[nH]c4)c2O1)-c1cc(=O)c(C(=O)O)cn1[C@H](C(C)(C)C)C3` [Example 147, (S)-5-(tert-butyl)-2,2-dimethyl-9-oxo-12-(1H-pyrazol-4-yl)-2,3,4,9-tetrahydro-5H-furo[3,2-f]pyrido[2,1-a]isoquinoline-8-carboxylic Acid]: above 1000 nM. The same measure for `CC(C)[C@@H]1Cc2c(cc(-c3cccs3)c3c2CCO3)-c2cc(=O)c(C(=O)O)cn21` [Example 99, (S)-5-isopropyl-9-oxo-12-(thiophen-2-yl)-2,3,4,9-tetrahydro-5H-furo[3,2-f]pyrido[2,1-a]isoquinoline-8-carboxylic Acid]: below 100 nM.

Compound `CC(C)[C@@H]1Cc2c(cc(-c3ccc(Cl)cc3)c3c2CCO3)-c2cc(=O)c(C(=O)O)cn21` [Example 109, (S)-12-(4-chlorophenyl)-5-isopropyl-9-oxo-2,3,4,9-tetrahydro-5H-furo[3,2-f]pyrido[2,1-a]isoquinoline-8-carboxylic Acid] returned an EC50 above 1000 nM.

`COCCCOc1cc2c(cc1-c1cnsc1)-c1cc(=O)c(C(=O)O)cn1[C@H]1[C@@H]2COC1(C)C` [Example 127, (3aS,12bR)-10-(isothiazol-4-yl)-11-(3-methoxypropoxy)-3,3-dimethyl-7-oxo-3,3a,7,12b-tetrahydro-1H-furo[3,4-c]pyrido[2,1-a]isoquinoline-6-carboxylic Acid]: the EC50 is below 100 nM. Next, `CC1(C)Cc2c3c(cc(-c4ccco4)c2O1)-c1cc(=O)c(C(=O)O)cn1[C@H](C(C)(C)C)C3` [Example 148, (S)-5-(tert-butyl)-12-(furan-2-yl)-2,2-dimethyl-9-oxo-2,3,4,9-tetrahydro-5H-furo[3,2-f]pyrido[2,1-a]isoquinoline-8-carboxylic Acid]: above 1000 nM; `CCn1cc(-c2cc3c(cc2OCCCOC)C[C@@H](C(C)(C)C)n2cc(C(=O)O)c(=O)cc2-3)cn1` [Example 34, (S)-6-(tert-butyl)-10-(1-ethyl-1H-pyrazol-4-yl)-9-(3-methoxypropoxy)-2-oxo-6,7-dihydro-2H-pyrido[2,1-a]isoquinoline-3-carboxylic Acid]: below 100 nM. In turn, `CC(C)(C)[C@@H]1Cc2c(cc(-c3ccn[nH]3)c3c2CCO3)-c2cc(=O)c(C(=O)O)cn21` [Example 82, (S)-5-(tert-butyl)-9-oxo-12-(1H-pyrazol-5-yl)-2,3,4,9-tetrahydro-5H-furo[3,2-f]pyrido[2,1-a]isoquinoline-8-carboxylic Acid] had an EC50 below 100 nM.

Regarding `COCCCOc1cc2c(cc1-c1ccsc1)-c1cc(=O)c(C(=O)O)cn1[C@H]1[C@@H]2COC1(C)C` [Example 143, (3aS,12bR)-11-(3-methoxypropoxy)-3,3-dimethyl-7-oxo-10-(thiophen-3-yl)-3,3a,7,12b-tetrahydro-1H-furo[3,4-c]pyrido[2,1-a]isoquinoline-6-carboxylic Acid], the EC50 is below 100 nM. `COCCCOc1cc2c(cc1-c1ccccc1)-c1cc(=O)c(C(=O)O)cn1[C@H]1[C@@H]2COC1(C)C` [Example 141] gave an EC50 below 100 nM.

In turn, `CC(C)(C)[C@@H]1Cc2c(cc(-c3ccncc3)c3c2CCO3)-c2cc(=O)c(C(=O)O)cn21` [Example 74, (S)-5-(tert-butyl)-9-oxo-12-(pyridin-4-yl)-2,3,4,9-tetrahydro-5H-furo[3,2-f]pyrido[2,1-a]isoquinoline-8-carboxylic Acid] yielded an EC50 below 100 nM.

`COCCCOc1cc2c(cc1-c1cccnc1)-c1cc(=O)c(C(=O)O)cn1[C@H]1[C@@H]2COC1(C)C` [Example 128, (3aS,12bR)-11-(3-methoxypropoxy)-3,3-dimethyl-7-oxo-10-(pyridin-3-yl)-3,3a,7,12b-tetrahydro-1H-furo[3,4-c]pyrido[2,1-a]isoquinoline-6-carboxylic Acid] showed an EC50 below 100 nM.

In turn, `CC(C)(C)[C@@H]1Cc2c(cc(-c3cn[nH]c3)c3c2CCO3)-c2cc(=O)c(C(=O)O)cn21` [Example 87, (S)-5-(tert-butyl)-9-oxo-12-(1H-pyrazol-4-yl)-2,3,4,9-tetrahydro-5H-furo[3,2-f]pyrido[2,1-a]isoquinoline-8-carboxylic Acid] returned an EC50 below 100 nM. The same measure for `CC1(C)Cc2c3c(cc(-c4cccs4)c2O1)-c1cc(=O)c(C(=O)O)cn1[C@H](C(C)(C)C)C3` [Example 152, (S)-5-(tert-butyl)-2,2-dimethyl-9-oxo-12-(thiophen-2-yl)-2,3,4,9-tetrahydro-5H-furo[3,2-f]pyrido[2,1-a]isoquinoline-8-carboxylic Acid]: above 1000 nM; for `CC(C)[C@@H]1Cc2c(cc(-c3ccc(F)cc3)c3c2CCO3)-c2cc(=O)c(C(=O)O)cn21` [Example 89, (S)-12-(4-fluorophenyl)-5-isopropyl-9-oxo-2,3,4,9-tetrahydro-5H-furo[3,2-f]pyrido[2,1-a]isoquinoline-8-carboxylic Acid]: below 100 nM; for `COCCCOc1cc2c(cc1-c1ccc3c(c1)OCCO3)-c1cc(=O)c(C(=O)O)cn1[C@H](C(C)(C)C)C2` [Example 31, (S)-6-(tert-butyl)-10-(2,3-dihydrobenzo[b][1,4]dioxin-6-yl)-9-(3-methoxypropoxy)-2-oxo-6,7-dihydro-2H-pyrido[2,1-a]isoquinoline-3-carboxylic Acid]: below 100 nM. For the compound `COCCCOc1cc2c(cc1-c1ccc(OC(F)(F)F)cc1)-c1cc(=O)c(C(=O)O)cn1[C@H](C(C)(C)C)C2` [Example 37, (S)-6-(tert-butyl)-9-(3-methoxypropoxy)-2-oxo-10-(4-(trifluoromethoxy)phenyl)-6,7-dihydro-2H-pyrido[2,1-a]isoquinoline-3-carboxylic Acid], the EC50 is above 1000 nM. For `CC(C)(C)[C@@H]1Cc2c(cc(C3CCCO3)c3c2CCO3)-c2cc(=O)c(C(=O)O)cn21` (stereo partly drawn) [Example 129, (5S)-5-(tert-butyl)-9-oxo-12-(tetrahydrofuran-2-yl)-2,3,4,9-tetrahydro-5H-furo[3,2-f]pyrido[2,1-a]isoquinoline-8-carboxylic Acid], the EC50 was below 100 nM. Next, `COCCCOc1cc2c(cc1-c1ccc(OC3CC3)cc1)-c1cc(=O)c(C(=O)O)cn1[C@H](C(C)(C)C)C2` [Example 40, (S)-6-(tert-butyl)-10-(4-cyclopropoxyphenyl)-9-(3-methoxypropoxy)-2-oxo-6,7-dihydro-2H-pyrido[2,1-a]isoquinoline-3-carboxylic Acid]: above 1000 nM. Next, `CC(C)(C)[C@@H]1Cc2c(cc(-c3ccc(C(F)(F)F)cc3)c3c2CCO3)-c2cc(=O)c(C(=O)O)cn21` [Example 80, (S)-5-(tert-butyl)-9-oxo-12-(4-(trifluoromethyl)phenyl)-2,3,4,9-tetrahydro-5H-furo[3,2-f]pyrido[2,1-a]isoquinoline-8-carboxylic Acid]: above 1000 nM.

Compound `CC(C)(C)[C@@H]1Cc2c(cc(-c3ccc(Cl)cc3)c3c2CCO3)-c2cc(=O)c(C(=O)O)cn21` [Example 84, (S)-5-(tert-butyl)-12-(4-chlorophenyl)-9-oxo-2,3,4,9-tetrahydro-5H-furo[3,2-f]pyrido[2,1-a]isoquinoline-8-carboxylic Acid] registered an EC50 above 1000 nM.
